In one data set the test system is WT and GC-C KO mice. The data set can be described thus: colorectal distension under basal conditions in WT and GC-C KO mice. Format: in vivo, mouse. The settings on record: oral 0.01 and 0.3 μg/kg. The procedure:
TNBS induced visceral hypersensitivity was assessed in WT and GC-C KO mice. Two groups (WT and GC-C KO) of male mice (22-25 g) were surgically prepared for electromyographic (EMG) recordings. Three electrodes were implanted in the striated muscles of the abdomen for EMG recording of abdominal contractions. Colorectal distension (CRD) was performed with a balloon inflated by 10s steps of 0.02 ml from 0 to 0.12 ml. Under basal conditions mice were submitted to control CRD (time 0) followed by oral administration of SEQ ID NO:3 (0.01 and 0.3 μg/kg) or vehicle only (distilled water, 1 ml) at 3 hours. One hour post dosing the CRD procedure was repeated. Abdominal EMG contractile response to colorectal distension in basal conditions in both WT and GC-C KO mice (12-14 mice per group) was determined in the absence of vehicle and SEQ ID NO:3, and the mean+/−standard error of the mean (SEM) is graphically depicted in FIG. 7c.

Data set [1] can be described thus: oral bioavailability in mice, radioimmunoassay (RIA). The settings on record: female, CD-1, mouse, in vivo. The protocol:
Oral bioavailability was also determined using a radioimmunoassay (RIA) detection method. Female CD-1 mice (Charles River, Wilmington, Mass.) weighing approximately 25 g (7-8 weeks old) or female CD rats (Charles River, Wilmington, Mass.) weighing approximately 153 g were included in this study. Monoclonal antibody, 20C1 (Brandwein et al. 1985 Infect Immun. 47:242-246), which recognizes SEQ ID NO:7 and 1251 labeled—SEQ ID NO:7, a labeled tracer, were used in these experiments. The labeled tracer was purified by HPLC using a Waters C-18u Bondapak® column (25 cm) previously equilibrated with 10 mM ammonium acetate pH 5.8. […] Blood was drawn from all dosed animals by retro-orbital eye bleeding at specific intervals and test compound levels were analyzed by radioimmunoassay (RIA). […] Radioactivity was measured in a LS 6500 scintillation counter (Beckman-Coulter). The binding efficiency is defined as the percent radioactivity in the B0 sample compared to the input counts. The percent bound in each sample was calculated by the equation: […]
A standard curve was prepared by plotting % B/B0 as a function of the log SEQ ID NO:3 concentration. […] The area under the curve from T=0 to 4 hours (AUC0-4h) was calculated by the software for both p.o. and i.v. dosed animals. […] Oral Bioavailability (F) is calculated using the equation: […]

A further data set concerns healthy subjects. The data set is described as follows: seven-day oral dosing study in humans, bowel habits. It counts as in vivo, human. The procedure: Seven daily doses of 30, 100, 300, or 1000 μg of chemically synthesized SEQ ID NO:3 were given to 48 healthy subjects. SEQ ID NO:3 or placebo (vehicle) was administered orally in 5.0 mL 50 mM phosphate buffer (pH 6.0) plus 3×20 mL water rinses and 175 mL water after at least a 10-hour fast. In each dosing group, 8 subjects were randomized to receive SEQ ID NO:3 and 4 subjects were randomized to receive placebo. […] The Mean Ease of Passage (FIG. 15d) of stools was tested for subjects treated with 30-1000 μg SEQ ID NO:3.

For the next data set, the target named is chymotrypsin (Bos taurus, UniProt P00766). The settings on record: 37° C., up to 24 h.
For the next data set, the target named is pepsin (Sus scrofa, UniProt P00791). The settings on record: pH 2.0, 37° C., up to 3 h.
pepsin, sequence (P00791 60-385): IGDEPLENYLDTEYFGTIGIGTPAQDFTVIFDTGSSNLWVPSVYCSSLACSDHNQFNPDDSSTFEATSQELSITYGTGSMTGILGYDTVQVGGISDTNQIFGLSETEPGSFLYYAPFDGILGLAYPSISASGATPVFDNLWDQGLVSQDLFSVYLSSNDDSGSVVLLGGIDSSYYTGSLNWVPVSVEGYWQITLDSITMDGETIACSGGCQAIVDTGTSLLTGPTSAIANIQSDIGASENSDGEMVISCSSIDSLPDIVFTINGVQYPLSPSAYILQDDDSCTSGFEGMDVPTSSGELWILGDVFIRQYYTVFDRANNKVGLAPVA
Another data set deals with mouse. The data set can be described thus: phenylbenzoquinone (PBQ)-induced writhing model. The settings on record: oral; SEQ ID NO:5 1 mg/kg, SEQ ID NO:3 2.5 mg/kg; versus vehicle control, FIGS. 8a, 8b.

Where a SMILES comes first, the peptide text is derived from it. Bridges are numbered along the chain shown (N, C = ends).

Description for chymotrypsin: The stability of SEQ ID NO:3 in the presence of several mammalian digestive enzymes was determined. SEQ ID NO:3 was exposed to a variety of in vitro conditions including digestive enzymes and low ph environments designed to simulate gastric fluid. SEQ ID NO:3 was incubated with chymotrypsin, trypsin, pepsin, aminopeptidase, carboxypeptidase A, and simulated gastric fluid (sgf) at ph 1.0. Samples were collected at 0, 3, and 24 h for all conditions except pepsin digestion and the SGF. For the latter two conditions, samples were obtained at 0, 1, and 3 h. Negative control samples were prepared for initial and final time points. A separate, positive activity control was run in parallel to SEQ ID NO:3. All samples were analyzed by LC/MS
500 μl samples of 0.01 mg/mL SEQ ID NO:3 and guanylin (Sigma-Aldrich, G116; positive control) were prepared in the chymotrypsin reaction buffer (100 mM Tris-HCl, 10 mM CaCl2, pH 7.5) in 2 mL eppendorf tubes. Zero and 24 h control samples were prepared by adding 5 μL of a 10 mM chymostatin (Sigma-Alrich, C7268; a chymotrypsin inhibitor) stock for a final concentration of 100 μM. All samples were incubated at 37° C. for 5 min. […] These standards were used to generate a standard curve for quantification of samples. […]
Description for pepsin: Samples were collected at 0, 3, and 24 h for all conditions except pepsin digestion and the SGF. For the latter two conditions, samples were obtained at 0, 1, and 3 h. Negative control samples were prepared for initial and final time points. […] All samples were analyzed by LC/MS
500 μL samples of 100 U/mL pepsin (Pepsin porcine gastric mucosa; Sigma-Aldrich, P68871; U=release of 0.01 absorbance at 280 nm (A280) as TCA soluble hydrolysis products per min at 37° C. of hemoglobin) were prepared in the pepsin reaction buffer (100 mM HCl-KCl, pH 2.0) in 5 mL polystyrene round bottom tubes. To the control samples (0 and 24 h), 500 μL of a 1 M ammonium acetate (pepsin inhibitor) stock were added, for a final concentration of 0.5 M. All control and test samples (0, 1, and 3 h) were incubated at 37° C. for 5 min, while shaking. […] Samples were returned to the 37° C. shaking water bath. Reactions were quenched by the addition of 500 μL of 1 M ammonium acetate for a final concentration of 0.5 M (except to the control samples, which already contained 0.5 M ammonium acetate). Samples were cooled on ice and stored at 4° C. until analysis. Upon analysis, samples were transferred to a 1 mL 96-well plate. […] These standards were used to generate a standard curve for quantification of samples. Ten (10) μL injections were made of each sample and standard.

On to `C[C@@H]1NC(=O)[C@@H]2CCCN2C(=O)[C@H](CC(N)=O)NC(=O)[C@@H]2CSSC[C@H](N)C(=O)N[C@H]3CSSC[C@H](NC1=O)C(=O)N[C@@H]([C@@H](C)O)C(=O)NCC(=O)N[C@H](C(=O)N[C@@H](Cc1ccc(O)cc1)C(=O)O)CSSC[C@H](NC(=O)[C@H](Cc1ccc(O)cc1)NC(=O)[C@H](CCC(=O)O)NC3=O)C(=O)N2` [SEQ ID NO:3] (H-CCEYCCNPACTGCY-OH; disulfide 1-6, 2-10, 5-13; N-terminus and C-terminus assumed), for which, in the data set with WT and GC-C KO mice, the “EMG response to colorectal distension” value was “decreased the EMG response to colorectal distension”. The AUC in data set [1] (8 mg/kg oral, read-out: AUCp.o.,(0-4h)) is at most 11.5 ng·h/mL. In addition, the bioavailability in data set [1] (oral, 8 mg/kg, over 4 hours, read-out: bioavailability (F)) was at most 0.04%. For the same compound, the “Mean Ease of Passage of stools, baseline versus treatment, placebo versus SEQ ID NO:3” value in the data set with healthy subjects (1000 μg dose group, FIG. 15e) is “greatest difference”. Also, the “Mean Stool Weight” value in the data set with healthy subjects (seven daily oral doses 30-1000 μg, higher doses, FIG. 15C) is “increase”. Moreover, the “Mean Stool Frequency (stools per week)” value in the data set on healthy subjects (seven daily oral doses 30-1000 μg, higher doses, FIG. 15b) is “increase”. The “Cleavage of SEQ ID NO: 3 by proteolytic substance” value at chymotrypsin and on pepsin was “not detectable” each time. Moreover, in the data set with mouse, the writhings result is on record as “Significant reductions in writhings”.

For the origin of these results see patent US20090305993A1, “METHODS AND COMPOSITION FOR THE TREATMENT OF GASTROINTESTINAL DISORDERS” (IRONWOOD PHARMACEUTICALS, INC., priority 2006, published 2009).
